Experiments:
Type in all cases: in vivo, human
QT interval = QT interval (heart depolarization-repolarization time) after smoking; details: FIG. 2; 3 x 10 mg sesamin capsules; placebo group significant prolongation (p<0.01)
Procedure: For nine male general university students, a test was carried out by a double blind, crossover study. Specifically, 3 soft capsules each containing 10 mg of sesamin and 3 placebo capsules were ingested, and the effect of the ingestion of the capsules on the activity of autonomic nerves was examined by a heart rate variability power spectrum method according to the method by Ue, H. et al. (Ue, H. et al., Ann. Noninvasive Electrocardiol., 5: 336-345 (2000)). After the ingestion of each sample, the students smoked one cigarette over a period of 4 min. Just before and after smoking, 10 min after smoking, and 30 min after smoking, electrocardiograms were taken, and sampling was carried out at 1024 Hz using 14-bit A/D conversion. Heart rate variability obtained from the electrocardiograms were processed by fast Fourier transform for frequency analysis to provide a heart rate variability power spectrum. In order to separate and quantify the heart rate variability spectrum, spectral integral values of two frequency bands (0.04 to 0.15 Hz and 0.15 to 0.4 Hz) are mainly determined. […] Further, the heart depolarization-repolarizaton time was measured by the QT interval.

[1] = tested on: activity of autonomic nerves; test: Heart rate variability power spectrum after smoking, double blind crossover study; details: for level of LF/HF change: 3 soft capsules each containing 10 mg of sesamin, nine male university students
Procedure: For nine male general university students, a test was carried out by a double blind, crossover study. Specifically, 3 soft capsules each containing 10 mg of sesamin and 3 placebo capsules were ingested, and the effect of the ingestion of the capsules on the activity of autonomic nerves was examined by a heart rate variability power spectrum method according to the method by Ue, H. et al. (Ue, H. et al., Ann. Noninvasive Electrocardiol., 5: 336-345 (2000)). After the ingestion of each sample, the students smoked one cigarette over a period of 4 min. Just before and after smoking, 10 min after smoking, and 30 min after smoking, electrocardiograms were taken, and sampling was carried out at 1024 Hz using 14-bit A/D conversion. Heart rate variability obtained from the electrocardiograms were processed by fast Fourier transform for frequency analysis to provide a heart rate variability power spectrum. In order to separate and quantify the heart rate variability spectrum, spectral integral values of two frequency bands (0.04 to 0.15 Hz and 0.15 to 0.4 Hz) are mainly determined. The spectral integral value of the low frequency (0.04 to 0.15 Hz) band was used as a measure of the activity of the sympathetic nerves and the activity of the parasympathetic nerves, while the spectral integral value of the high frequency (0.15 to 0.4 Hz) band was used as a measure of the activity of the parasympathetic nerves. Further, the value obtained by dividing the spectral integral value of the low frequency band by the spectral integral value of the high frequency band, that is, LF/HF, was used as a measure of the balance between the activity of the sympathetic nerves and the activity of the parasympathetic nerves (Akselrod S et al., Science 213: 220-222 (1981) and Moritani T et al., J sportmed Sci. 7: 31-39 (1993)). Further, the heart depolarization-repolarizaton time was measured by the QT interval.

[2] = tested on: activity of autonomic nerves; test: Heart rate variability power spectral analysis in women with symptoms of climacteric disorder, double-blind parallel comparison; details: 4 weeks, 3 soft capsules each containing 10 mg of sesamin; supine position; FIG. 3
Procedure: For 14 women who display symptoms of climacteric disorder, a test was carried out by double-blind parallel between-groups comparison. The subjects were randomly divided into two groups. Over a period of 4 weeks, 3 soft capsules each containing 10 mg of sesamin were ingested consecutively for one of the groups, and 3 placebo capsules were ingested consecutively for the other group. Before and after the ingestion of the sample, electrocardiograms were taken in a supine position, and the activity of the autonomic nerves was examined by heart rate variability power spectral analysis.

c1cc2c(cc1[C@H]1OC[C@H]3[C@@H]1CO[C@@H]3c1ccc3c(c1)OCO3)OCO2 [sesamin]
prolongation of QT interval caused by smoking (QT interval): no significant prolongation
level of LF/HF change ([1]; 30 min after smoking): −0.239
level of LF/HF change ([1]; just after smoking): +2.87
lowering in the activity of the parasympathetic nerves caused by smoking ([1]; vs placebo, p<0.05, FIG. 1, 3 x 10 mg sesamin capsules): significantly inhibited
overall autonomic nerve activity [2]: increased
parasympathetic nerve activity [2]: significantly increased
sympathetic nerve activity [2]: increased

— patent publication US20060058376A1, “Composition having autonomic nerve modulating activity and method of use thereof” (SUNTORY LIMITED, priority 2003, published 2006)
